Source: US20160264616A1, “THERAPEUTIC COMPOUNDS AND METHODS” (priority 2015, published 2016)
“Also recorded” adds a separate entry of the source.

Tested on: RGS17FL:Gαo interaction in HEK293T cells
Experiment: RGS localization assay, GFP-RGS17FL co-transfected with human Gαo in HEK293T cells
Type: cell-based
Details: 100 μM, 0-10 min
Procedure: HEK293T cells co-transfected with GFP-RGS17FL and human Gαo were treated with UI-5, UI-1590 and […] to determine if the compounds could disrupt the RGS17:Gαo interaction that could drive RGS17 to the membrane. […] To test this hypothesis, we constructed a GFP-RGS17 fusion protein with an N-terminal truncation, removing the cysteine-rich motif. […] As a negative control, we tested a known RGS4 inhibitor (CCG-50014) in this assay against RGS17ΔN (21). […] Finally, to ensure the localization was not due to the GFP tag, pAcGFP vector was co-transfected into HEK293T cells with hGαo. […] Cross-sectional fluorescence intensity analysis was used to quantify the intensity of signal at a cross section of the cell. Average signal at the membrane and in the cytoplasm were calculated and change in signal intensity was assessed between time zero and time final. […] Additionally, the control condition of CCG-50014 was subject to the same analyses as the lead compound.
Twenty four (24) hours prior to plating, assay plates were coated with 30 μl poly-D-lysine per well. Human Embryonic Kidney 293T cells (HEK293T) were plated in to 96 well tissue culture treated glass bottom view plates (Perkin Elmer, Part No. 6005430) at a density of 25K cells per well. […] Images were analyzed using NIH Image J software and Graphpad Prism 6. […]

C[n+]1cc2c3c(ccc2c2ccc4cc5c(cc4c21)OCO5)OCO3 [UI-5]
delocalization of full length RGS17FL: remained at the membrane; also recorded: does not diffuse back in to the cytoplasm
